Among the data in the Deep4Chem optical property database are photoluminescence quantum yield values, retold here.

The data set in a line: photoluminescence quantum yield (fraction); solvent given as SMILES.

As to `CCC1=C(C)C2=Cc3cccn3[B-](F)(F)[N+]2=C1C`, the photoluminescence quantum yield was 0.7 (in C1CCCCC1); 0.65 (in CC(C)=O); 0.69 (in CCO); 0.69 (in CCOC(C)=O); 0.6 (in CO); 0.49 (in OCC(F)(F)F).
The compound `CC(C)[Si](C#Cc1ccc(C#Cc2c3cc4ccccc4cc3c(C#C[Si](C(C)C)(C(C)C)C(C)C)c3cc4ccccc4cc23)cc1)(C(C)C)C(C)C` returned a photoluminescence quantum yield (in ClCCl) of 0.12.
Consider `CCCC1(CCC)c2cc(-c3ccc(OC)cc3)ccc2-c2ccc(-c3ccc4c(c3)C(CCC)(CCC)c3cc(-c5ccc(OC)cc5)ccc3-4)cc21`, for which the photoluminescence quantum yield (in C1CCCCC1) stood at 1.
For the setting “in CCO”, `CCOC(=O)c1cc(C(=O)OCC)c2ccc(C)cc2n1` yielded a photoluminescence quantum yield of 0.019.
Consider `COc1ccc(NC(=O)C(C(=O)Nc2ccc(OC)cc2)C(c2ccccc2O)c2c(C)[nH]c3ccccc23)cc1` (configuration not stated), for which the photoluminescence quantum yield is, setting by setting: (in CO) 0.0094; (in CS(C)=O) 0.013.
Turning to `CCn1c2ccccc2sc2c(C#N)c3[nH]c4ccccc4sc3c(C#N)c21`, under “in ClC(Cl)Cl”, the photoluminescence quantum yield came out at 0.32.
Regarding `O=S1(=O)c2ccc(-c3ccc4c(c3)c3ccccc3n4-c3ccccc3)cc2C2(c3cc(-c4ccc5c(c4)c4ccccc4n5-c4ccccc4)ccc31)c1cc(-c3ccc4c(c3)c3ccccc3n4-c3ccccc3)ccc1S(=O)(=O)c1ccc(-c3ccc4c(c3)c3ccccc3n4-c3ccccc3)cc12`, the photoluminescence quantum yield (in CC1CCCO1) stood at 0.83.
As to `F[Si](c1ccccc1)(c1ccccc1)c1cccc2ccccc12`, the photoluminescence quantum yield (in C1CCOC1) was determined as 0.14.
In turn, `COc1ccc2c(C#N)cc3ccc4cc(C#N)c5ccc(OC)cc5c4c3c2c1` yielded a photoluminescence quantum yield (in ClC(Cl)Cl) of 0.1.
`c1ccc2c(c1)c1ccccc1n2-c1ccc2c(c1)c1ccccc1n2-c1cc2c3ccccc3n3c4ccccc4c(c1)c23`: for the setting “in O=P(c1ccccc1)(c1ccccc1)c1ccccc1Oc1ccccc1P(=O)(c1ccccc1)c1ccccc1”, the photoluminescence quantum yield was 0.53.
Take `Cc1ccc(/C=C/c2ccccc2-[n+]2cc([O-])on2)cc1`: the photoluminescence quantum yield (in C1CCCCC1) turned out to be 0.0007 and the photoluminescence quantum yield (in CC#N) was 0.017.
For the compound `Cc1cccn2c1cc1c3ccccc3nc(-c3cccs3)c12`, the photoluminescence quantum yield (in CS(C)=O) was 0.2.
Where the note is “in OCC(O)CO”, `C[n+]1ccc(/C=C/c2ccc(N(c3ccccc3)c3ccc(/C=C/c4cc[n+](C)cn4)cc3)cc2)nc1` registered a photoluminescence quantum yield of 0.026.
Take `CCCCC(CC)COc1cc(OCC(CC)CCCC)c2c#cc3ccc4oc5ccc(c#cc6cc(c#cc7ccc8oc9ccc(c#cc1c2)cc9c8c7)c(C(CCCC)OCCC)cc6C(CCCC)OCCC)cc5c4c3` (configuration not stated): for the setting “in ClCCl”, the photoluminescence quantum yield was 0.57.
`CCCCCCCCCCCCc1ccc(-c2cc(C)[o+]c(C)c2)cc1` came in with a photoluminescence quantum yield (in CC#N) of 0.36 and a photoluminescence quantum yield (in ClCCl) of 0.37.
Under “in Cc1ccccc1”, `c1cc2c3c(c1)-c1ccc4c5c(ccc(c15)B3c1ccc3c5c(ccc-2c15)CC3)CC4` came in with a photoluminescence quantum yield of 0.79.
Regarding `Cc1ccc(-c2cc(-c3ccc(N(C)C)cc3)c3c(N)nc(N4CCCC4)c(C#N)c3n2)cc1`, the photoluminescence quantum yield was determined as 0.095 (in CC#N) and 0.083 (in c1ccccc1).
Take `Cc1ccc(-c2cnc3ccc4ccccc4n23)cc1`: the photoluminescence quantum yield (in ClCCl) is 0.42.
Take `CC(C)c1cccc(C(C)C)c1N1C(=O)c2ccc3c(-c4ccc(C(=O)O)cc4)c4c5ccc6c7c(ccc(c(-c8ccc(C(=O)O)cc8)c4c4ccc(c2c34)C1=O)c75)C(=O)N(c1c(C(C)C)cccc1C(C)C)C6=O`: the photoluminescence quantum yield (in ClCCl) amounted to 0.3.
Consider `O=P1(c2ccccc2)C2=C(c3ccccc31)S(=O)(=O)c1ccccc12` (configuration not stated), for which the photoluminescence quantum yield (in ClCCl) is 0.98.
On to `COc1ccc(-c2cc3c(ccc4sccc43)s2)cc1`, for which the photoluminescence quantum yield (in ClCCl) stood at 0.55.
Consider `C(#Cc1cccc2cc(-c3ccccc3)c3cc(-c4cc[b-]5c(c4)c(-c4ccccc4)cc4cccc(C#Cc6ccccc6)[n+]54)cc[b-]3[n+]12)c1ccccc1`, for which the photoluminescence quantum yield (in C1CCCCC1) came out at 0.02.
In the case of `F[B-]1(F)N2C=CN=CC2=[N+]2[N+]1=Cc1c(-c3ccccc3)cc(-c3cccs3)n1[B-]2(F)F`, the photoluminescence quantum yield (in ClCCl) was 0.45.
Take `O=C(c1ccncc1)c1ccc(-n2c3ccccc3c3cc(-n4c5ccccc5c5ccccc54)ccc32)cc1`: the photoluminescence quantum yield (in Cc1ccccc1) is 0.178 and the photoluminescence quantum yield (in c1cc(-c2cccc(-n3c4ccccc4c4ccccc43)c2)cc(-n2c3ccccc3c3ccccc32)c1) is 0.72.
In the case of `COc1ccc(C#Cc2ccc(C#Cc3ccc(C#Cc4ccccc4C#N)cc3C#N)cc2C#N)cc1`, the photoluminescence quantum yield runs as follows: (in C1CCOC1) 0.972; (in CC#N) 0.973; (in CN(C)C=O) 0.949; (in ClC(Cl)Cl) 0.982; (in c1ccccc1) 0.972.
Take `COc1ccc(C2=C(c3ccc(OC)cc3)C(C)(C)c3sccc32)cc1`: the photoluminescence quantum yield (in C1CCCCC1) came to 0.02.
`N#Cc1nn(-c2cccc(C(F)(F)F)c2)nc1N1CCCC1` came in with a photoluminescence quantum yield (in CC#N) of 0.801.
`CC1(C)c2ccccc2N(c2ccc(-c3nc(-c4ccccn4)n(-c4ccc(N5c6ccccc6C(C)(C)c6ccccc65)cc4)n3)cc2)c2ccccc21`: the photoluminescence quantum yield (in ClCCl) amounted to 0.0876.
With `N#Cc1c(-n2c3ccccc3c3ccccc32)c(F)c(-n2c3ccccc3c3ccccc32)c(-n2c3ccccc3c3ccccc32)c1-n1c2ccccc2c2ccccc21`, the photoluminescence quantum yield by setting is: (in Cc1ccccc1) 0.81; (in c1ccc([Si](c2ccccc2)(c2ccc(-n3c4ccccc4c4ccccc43)cc2)c2ccc(-n3c4ccccc4c4ccccc43)cc2)cc1) 1.
With `CCn1c2cc(OC)ccc2c2c3nsnc3c3c4ccc(OC)cc4n(CC)c3c21`, the photoluminescence quantum yield runs as follows: (in CN(C)C=O) 0.49; (in Cc1ccccc1) 0.41; (in ClCCl) 0.44.
Consider `CCCCCCCCOc1ccc(C#Cc2ccc(C#Cc3ccc(OCCCCCCCC)c(OCCCCCCCC)c3)c3nc4c5ccccc5c5ccccc5c4nc23)cc1OCCCCCCCC`, for which the photoluminescence quantum yield is, setting by setting: (in C1CCOC1) 0.18; (in Cc1ccccc1) 0.19; (in ClCCl) 0.33.
`CC(C)[Si]1(C(C)C)c2cc(C=O)ccc2-c2ccc(N(c3ccccc3)c3ccccc3)cc21`: the photoluminescence quantum yield runs as follows: (in C1CCCCC1) 0.5; (in CC#N) 0.48; (in CCO) 0.11; (in CCOCC) 0.76; (in CS(C)=O) 0.58; (in ClCCl) 0.8. Where the note is “in c1ccccc1”, this compound returned a photoluminescence quantum yield of 0.77.
For `C[Si](C)(C)c1ccc2ccc3c([Si](C)(C)C)ccc4ccc1c2c43`, the photoluminescence quantum yield (in CCCCCC) amounted to 0.42, the photoluminescence quantum yield (in CO) came out at 0.5 and the photoluminescence quantum yield (in ClCCl) was 0.5.
In the case of `CCCCCCOc1ccc(C#Cc2ccc(-c3ccc(-c4ccc(C#Cc5ccc(OCCCCCC)c(OCCCCCC)c5)s4)c4nsnc34)s2)cc1OCCCCCC`, the photoluminescence quantum yield (in C1CCCCC1) was 0.54; the photoluminescence quantum yield (in CCOC(C)=O) was determined as 0.46; the photoluminescence quantum yield (in CN(C)C=O) came to 0.24; the photoluminescence quantum yield (in COc1ccccc1) came out at 0.48; the photoluminescence quantum yield (in Cc1ccccc1) stood at 0.55; the photoluminescence quantum yield (in ClC(Cl)Cl) amounted to 0.43. The photoluminescence quantum yield runs as follows: (in ClCCCl) 0.34; (in ClCCl) 0.35.
The compound `CC[C@H](C)COc1ccc(C2=C3C(C)=C(I)C(C)=[N+]3[B-](F)(F)n3c(C)c(I)c(C)c32)cc1` yielded a photoluminescence quantum yield (in ClCCl) of 0.06.
For the compound `FC(F)(F)c1cc2n(n1)[B-]1(c3ccccc3Oc3ccccc31)[n+]1ccc3ccccc3c1-2`, the photoluminescence quantum yield is, setting by setting: (in C1CCCCC1) 0.0026; (in Cc1ccccc1) 0.0027; (in ClCCl) 0.0029.
